Reference: patent publication US8927760B2, “Colchicine derivatives or pharmaceutically acceptable salts thereof, method for preparing said derivatives, and pharmaceutical composition comprising said derivatives” (priority 2010, dated 2015)
Several values for one entry are separate records, joined by “and”; a condition that tells them apart may be missing. Equal entries are not always repeated. Entries after “also recorded” stand apart in the source; their conditions may differ.

Columns and labels:
[1] = system: Wistar rat (recipient) with transplanted Lewis rat heart; assay: Allogeneic heart transplantation (abdominal heterotopic, Lewis donor to Wistar recipient); format: in vivo
Protocol: Hearts of 8-week-old Lewis rats (donor) weighing about 250 g were extracted and performed abdominal heterotopic heart transplantation into the abdominal cavity of 8-week-old Wistar rat (recipient) weight about 300 g by cross-clamping caudal vena cava and the abdominal aorta of recipient both proximally and distally to the anastomotic site.
The heart rate of each rat in an untreated control group and the experimental groups was measured by abdominal palpation from the date of the heart transplant, and the heart rate was classified as ++++ (strong and fast heartbeat), +++ (strong or fast heartbeat), ++ (faint and slow but distinct heartbeat), + (faint but steady heartbeat), and ±0 (intermittent heartbeat).

[2] = system: streptozotocin induced diabetic Fischer 344 rats with transplanted Lewis rat islet cells; assay: Allogeneic pancreatic islet cell transplantation - single intraperitoneal administration; format: in vivo
Protocol: (§1) Streptozotocin is a drug that destroys pancreatic islet cells to induce diabetes and is used to create experimental diabetic animal models. Allogeneic islets were transplanted into the livers of streptozotocin induced diabetic rat by injection into the portal vein. The functioning of transplanted islets was assessed by daily measurements of blood glucose levels. Islets were considered rejected when the blood glucose level was 200 mg/dl on two consecutive days.
(§2) 35 mg/kg of streptozotocin (50 mg/mL) dissolved in a 0.1 M citrate buffer solution (pH 4.5) was intraperitoneally injected into 8-week-old male Fischer 344 rats (F344) weighing about 200 to 220 g. Then, the blood glucose level was measured after 1 week, and the first day when the blood glucose level increased over 300 mg/dl and the increase was repeated more than twice was considered as the date of diagnosis of diabetes. The rats were used in transplantation 3 weeks after the administration of streptozotocin.
(§3) Pancreases of 8-week-old male Lewis rats were extracted on the 3 weeks after the diabetes was induced in Fischer rats, and islet cells were isolated. The isolated islet cells were cultured in a CO2 incubator at 37° C. for a day, and the cultured islet cells were transplanted into the diabetic Fischer rats.
Cyclosporin (5 mg/kg), colchicine (10 μg/kg and 40 μg/kg), and colchicine derivative compounds (compounds 1, 7, 9, 14, 15, 17, 18, 22, and 23; 50 μg/kg) were administered to the Fischer rats, to which the islet cells were transplanted, for 14 days from the date of transplantation, and the maintenance of blood glucose levels was examined until rejection occurred from the date of transplantation.

[3] = system: streptozotocin induced diabetic Fischer 344 rats with transplanted Lewis rat islet cells; assay: Allogeneic pancreatic islet cell transplantation - combined intraperitoneal administration; format: in vivo; settings: for Average number of days for which islet cell function was maintained / Number of days for which islet cell function was maintained (individual rats): i.p. for 14 days
Protocol: as §1, §2, §3
However, considering the interaction between the two drugs, the two drugs were introduced in different syringes and injected to right and left sides of the abdominal cavity, respectively, and the measurement results are shown in the following table 4.

spleen cells of rats = assay: Cytotoxicity test in rat spleen cells (CCK, absorbance at 450 nm); format: cell-based; settings: 72 hours, at concentrations of 100 ng to 10000 ng/mL
Protocol: Cytotoxicity test was performed to determine the toxicity of immunosuppressant candidate materials by mixing the immunosuppressant candidate materials with spleen cells of rats in culture media and measuring the degree of toxicity in the cells. […] The concentrations of the drugs were 0.1, 1, 10, 100, 1000, 10000, and 100000 ng/mL. The cells were cultured in a CO2 incubator for 72 hours, and then each well was treated with 10 μl of CCK-SK (Dojindo, Japan). Subsequently, the cells were cultured again in the CO2 incubator for 4 hours, and then the absorbance (O.D. value) was measured at 450 nm using a spectrophotometer.

[4] = system: streptozotocin induced diabetic Fischer 344 rats with transplanted Lewis rat islet cells; assay: Allogeneic pancreatic islet cell transplantation - continuous combined intraperitoneal administration; format: in vivo
Protocol: as §1, §2, §3

[5] = 10 μg/kg intravenously for 14 days
[6] = 40 μg/kg intravenously for 14 days
[7] = 40 μg/kg intravenously for 14 days, * = death
[8] = single administration, 10 μg/kg i.p. for 14 days
[9] = single administration, 40 μg/kg i.p. for 14 days
[10] = single administration, 40 μg/kg i.p. for 14 days, * = death
[11] = 10 μg/kg combined with CsA (5 mg/kg)
[12] = 50 μg/kg combined with CsA (5 mg/kg)
[13] = single administration, 50 μg/kg i.p. for 14 days
[14] = CsA (5 mg/kg) & Compound 14 (40 μg/kg) for 2 weeks, then continuously injected
[15] = CsA (5 mg/kg) & Compound 14 (500 μg/kg) for 2 weeks, then continuously injected
[16] = CsA (5 mg/kg) & Compound 14 (500 μg/kg) for 2 weeks, then only CsA (5 mg/kg)
[17] = CsA (5 mg/kg) & Compound 14 (500 μg/kg) for 2 weeks, then only compound 14 (500 μg/kg)
[18] = CsA (5 mg/kg) & Compound 14 (500 μg/kg) injected for 2 weeks

`COc1cc2c(c(OC)c1OC)-c1ccc(OC)c(=O)cc1[C@@H](NC(C)=O)CC2` [Colchicine, colchicine] was tested, and the “Average number of days for which heart rate was kept” value [1, 5] was >70 ± 100.5 days, the “Number of days for which heart rate was kept (individual rats)” value [1, 5] was 12 day (2×) and > 186 day and the “Number of days for which heart rate was kept (individual rats)” value ([1]; 10 μg/kg intravenously for 14 days, listed as colchicine) was 12 day and over 186 day. For the same compound, the “Average number of days for which heart rate was kept” value [1, 6] was >73.3 ± 85.4 days, the “Number of days for which heart rate was kept (individual rats)” value [1, 7] was 13 days and 14 days and > 32 days and > 187 days and the “Number of days for which heart rate was kept (individual rats)” value ([1]; 40 μg/kg intravenously for 14 days, * = death, listed as colchicine) was 13 day and 14 day and over 187 day. For the same compound, the death of rats ([2]; 40 μg/kg alone, four rats, listed as colchicines) was “two of the four rats were dead; also recorded: one rat was dead suddenly after 9 days”, the weight reduction ([2]; 40 μg/kg alone, on the second day, the two rats that died) was 15% and the “difference from the control group in maintenance of blood glucose levels” value ([2]; single administration) was “no significant differences from the control group”. For the same compound, the “Average number of days for which islet cell function was maintained” value [2, 8] was 5 days, the “Number of days for which islet cell function was maintained (individual rats)” value [2, 8] was 5, 5 day and the “Average number of days for which islet cell function was maintained” value [2, 9] was 6 days. The “Number of days for which islet cell function was maintained (individual rats)” value [2, 10] was 2 day (2×) and 6 day and 9 day, the “Number of days for which islet cell function was maintained (individual rats)” value ([2]; single administration, 40 μg/kg i.p. for 14 days, * = death, listed as colchicines) was 6 days and the “Average number of days for which islet cell function was maintained” value [3, 11] was 8 days. The “Average number of days for which islet cell function was maintained” value ([3]; 10 μg/kg combined with CsA (5 mg/kg), listed as colchicine) was 8 days and the “increase of days of islet cell function compared to the single administration” value ([3]; 10 μg/kg combined with cyclosporin A (5 mg/kg)) was “about 3 days”.
In the case of `COc1cc2c(c(OC)c1OC)-c1ccc(OC)c(=O)cc1C(NC(=O)OCc1ccccc1)CC2` (centres unmarked) [Compound 1, (1,2,3,10-tetramethoxy-9-oxo-5,6,7,9-tetrahydro-benzo[a]heptalen-7-yl)-carbamic acid benzyl ester], the cytotoxicity (spleen cells of rats) is reported as “no cytotoxicity”, the “Average number of days for which islet cell function was maintained” value [3, 12] is reported as 27 days and the “Number of days for which islet cell function was maintained (individual rats)” value [3, 12] is reported as 27, 27 day.
With `COc1ccc(COC(=O)NC2CCc3cc(OC)c(OC)c(OC)c3-c3ccc(OC)c(=O)cc32)cc1` (centres unmarked) [Compound 7, (1,2,3,10-tetramethoxy-9-oxo-5,6,7,9-tetrahydro-benzo[a]heptalen-7-yl)-carbamic acid 4-methoxy benzyl ester] the cytotoxicity (spleen cells of rats) was “no cytotoxicity”, the “Average number of days for which islet cell function was maintained” value [2, 13] was 5.7 ± 1.16 days and the “Number of days for which islet cell function was maintained (individual rats)” value [2, 13] was 5 day (2×) and 7 day. The “Average number of days for which islet cell function was maintained” value [3, 12] was >61.6 days and the “Average number of days for which islet cell function was maintained” value ([3]; 100 μg/kg combined with CsA (5 mg/kg)) was >72 days.
With `COc1cc2c(c(OC)c1OC)-c1ccc(OC)c(=O)cc1C(NC(=O)OCc1ccc(C(C)C)cc1)CC2` (centres unmarked) [Compound 9, (1,2,3,10-tetramethoxy-9-oxo-5,6,7,9-tetrahydro-benzo[a]heptalen-7-yl)-carbamic acid 4-isopropyl benzyl ester] the cytotoxicity (spleen cells of rats) was “no cytotoxicity”, the “Average number of days for which islet cell function was maintained” value [2, 13] was 5.7 ± 0.58 days and the “Number of days for which islet cell function was maintained (individual rats)” value [2, 13] was 5 days to days and 5 day and 6 day. For the same compound, the “Average number of days for which islet cell function was maintained” value [3, 12] was >55.7 days.
In the case of `COc1cc2c(c(OC)c1OC)-c1ccc(OC)c(=O)cc1C(NC(=O)OCC1c3ccccc3-c3ccccc31)CC2` (centres unmarked) [Compound 14, (1,2,3,10-tetramethoxy-9-oxo-5,6,7,9-tetrahydro-benzo[a]heptalen-7-yl)-carbamic acid 9H-fluoren-9-ylmethyl ester], the cytotoxicity (spleen cells of rats) is reported as “no cytotoxicity”, the “Average number of days for which heart rate was kept” value [1, 5] is reported as >107 ± 86.6 days and the “Number of days for which heart rate was kept (individual rats)” value [1, 5] is reported as 9 day and over 139 day and over 173 day and > 139 day and > 173 day. The “Average number of days for which heart rate was kept” value [1, 6] was >173.5 ± 0.7 days, the “Number of days for which heart rate was kept (individual rats)” value [1, 7] was “over 173 day and > 174 day and > 173 day” and the “Average number of days for which islet cell function was maintained” value [2, 8] was 5.5 ± 0.71 days. For the same compound, the “Number of days for which islet cell function was maintained (individual rats)” value [2, 8] was 5, 5 day, the “Average number of days for which islet cell function was maintained” value [2, 9] was 6.5 ± 0.71 days and the “Number of days for which islet cell function was maintained (individual rats)” value [2, 10] was 6 days and 7 days. The “Average number of days for which islet cell function was maintained” value [3, 11] was 28.7 days, the “Average number of days for which islet cell function was maintained” value ([3]; 40 μg/kg combined with CsA (5 mg/kg)) was >61.8 days and the “Average number of days for which islet cell function was maintained” value [4, 14] was >63 ± 9.9 days. For the same compound, the “Number of days for which islet cell function was maintained (individual rats)” value [4, 14] was 56 days and > 70 days, the “Average number of days for which islet cell function was maintained” value [4, 15] was 67.7 ± 24.0 days and the “Number of days for which islet cell function was maintained (individual rats)” value [4, 15] was 40 days and 81 days and 82 days. For the same compound, the “Average number of days for which islet cell function was maintained” value [4, 16] was 48.5 ± 12.0 days, the “Number of days for which islet cell function was maintained (individual rats)” value [4, 16] was 40 days and 57 days and the “Average number of days for which islet cell function was maintained” value [4, 17] was 52.7 ± 52.3 days. The “Number of days for which islet cell function was maintained (individual rats)” value [4, 17] was 20 days and 25 days and 113 days, the “Average number of days for which islet cell function was maintained” value [4, 18] was 29 ± 3.61 days and the “Number of days for which islet cell function was maintained (individual rats)” value [4, 18] was 25 days and 30 days and 32 days. For the same compound, the “islet cell function improved, times compared to 2 weeks combined administration only” value ([4]; two drugs continuously administered together after combined administration for 2 weeks) was “about 2.3 times”.
With `COc1cc2c(c(OC)c1OC)-c1ccc(OC)c(=O)cc1C(NC(=O)OCC1c3ccccc3-c3cccc(C)c31)CC2` (centres unmarked) [Compound 15, (1,2,3,10-tetramethoxy-9-oxo-5,6,7,9-tetrahydro-benzo[a]heptalen-7-yl)-carbamic acid 1-methyl-9H-fluoren-9-ylmethyl ester] the cytotoxicity (spleen cells of rats) was “no cytotoxicity”, the “Average number of days for which islet cell function was maintained” value [3, 12] was 24 days and the “Number of days for which islet cell function was maintained (individual rats)” value [3, 12] was 24, 24 day.
In the case of `COc1cc2c(c(OC)c1OC)-c1ccc(OC)c(=O)cc1C(NC(=O)OCC1c3cc(C(C)(C)C)ccc3-c3ccc(C(C)(C)C)cc31)CC2` (centres unmarked) [Compound 17, (1,2,3,10-tetramethoxy-9-oxo-5,6,7,9-tetrahydro-benzo[a]heptalen-7-yl)-carbamic acid 2,7-di-tert-butyl-9H-fluoren-9-ylmethyl ester], the cytotoxicity (spleen cells of rats) is reported as “no cytotoxicity” and the “Average number of days for which islet cell function was maintained” value [3, 12] is reported as 36.5 days.
For `COc1cc2c(c(OC)c1OC)-c1ccc(OC)c(=O)cc1C(NC(=O)OCCC1c3ccccc3-c3ccccc31)CC2` (centres unmarked) [Compound 18, (1,2,3,10-tetramethoxy-9-oxo-5,6,7,9-tetrahydro-benzo[a]heptalen-7-yl)-carbamic acid 2-(9H-fluoren-9-yl)-ethyl ester], the cytotoxicity (spleen cells of rats) was “no cytotoxicity” and the “Average number of days for which islet cell function was maintained” value [3, 12] was 28 days.
`COc1ccc(CCC(=O)NC2CCc3cc(OC)c(OC)c(OC)c3-c3ccc(OC)c(=O)cc32)cc1` (centres unmarked) [Compound 22, 3-(4-methoxy-phenyl)-N-(1,2,3,10-tetramethoxy-9-oxo-5,6,7,9-tetrahydro-benzo[a]heptalen-7-yl)-propionamide] was tested, and the cytotoxicity (spleen cells of rats) was “no cytotoxicity” and the “Average number of days for which islet cell function was maintained” value [3, 12] was 20.7 days.
With `COc1cc2c(c(OC)c1OC)-c1ccc(OC)c(=O)cc1C(NC(=O)CC1c3ccccc3-c3ccccc31)CC2` (centres unmarked) [Compound 23, 2-(9H-fluoren-9-yl)-N-(1,2,3,10-tetramethoxy-9-oxo-5,6,7,9-tetrahydro-benzo[a]heptalen-7-yl)-acetamide] the cytotoxicity (spleen cells of rats) was “no cytotoxicity” and the “Average number of days for which islet cell function was maintained” value [3, 12] was 26.5 days.
